Columns and labels:
[1] = Cell viability assay (MTT) on normal mammary epithelial cells; assay type: cell-based; conditions: human, MCF-10A normal mammary gland epithelial cells, MCF-10A cells, four days
Description: To test the viability of new substances, the epithelial (MCF-10A) cell line of the normal human mammary gland was used. Compounds 8–17 were incubated for four days on MCF-10A cells before being tested for viability using the MTT assay. According to Table 1, none of the substances tested were cytotoxic, and cell viability at 50 µM was greater than 87% for the compounds tested.
The normal human mammary gland epithelial (MCF-10A) cell line was used to test the viability of new compounds [46, 47]. See Appendix SA (Supplementary File).
(§1) 4.2. Biological evaluation
4.2.1. Cytotoxic activity using MTT Assay and evaluation of IC50
MTT assay was performed to investigate the effect of the synthesized compounds on mammary epithelial cells (MCF-10A). The cells were propagated in medium consisting of Ham's F-12 medium/ Dulbecco's modified Eagle's medium (DMEM) (1:1) supplemented with 10% foetal calf serum, 2 mM glutamine, insulin (10 μg/mL), hydrocortisone (500 ng/mL) and epidermal growth factor (20 ng/mL). Trypsin ethylenediamine tetra acetic acid (EDTA) was used to passage the cells after every 2-3 days. 96-well flat-bottomed cell culture plates were used to seed the cells at a […]
of 10^4 cells mL-1. The medium was aspirated from all the wells of culture plates after 24 h followed by the addition of synthesized compounds (in 200 μL medium to yield a final concentration of 0.1% (v/v) dimethyl sulfoxide) into individual wells of the plates. Four wells were designated to a single compound. The plates were allowed to incubate at 37°C for 96 h. Afterwards, the medium was aspirated and 3 -[4,5-dimethylthiazol-2-yl]-2,5-diphenyltetrazolium bromide (MTT) (0.4 mg/mL) in medium was added to each well and subsequent ly incubated for 3 h. The medium was aspirated and 150 μL dimethyl sulfoxide (DMSO) was added to each well. The plates were vortexed followed by the measurement of absorbance at 540 nm on a microplate reader. […]

[2] = system: MCF-7 (breast cancer cell line); experiment: Antiproliferative assay (MTT), MCF-7; assay type: cell-based; conditions: Homo sapiens, MCF7; read-out: Antiproliferative Activity IC50 ± SEM (µM) MCF-7
Description: The antiproliferative activity of pyrazoline hybrids 8–17 was tested against the four human cancer cell lines Panc-1 (pancreatic cancer cell line), MCF-7 (breast cancer cell line), HT-29 (colon cancer cell line), and A-549 (lung cancer cell line) using the MTT assay and doxorubicin as the reference drug. See Appendix SA (Supplementary File).
as §1
4.2.1. Cytotoxic activity using MTT Assay and evaluation of IC50 […]
96-well flat-bottomed cell culture plates were used to seed the cells at a […]
of 10^4 cells mL-1. The medium was aspirated from all the wells of culture plates after 24 h followed by the addition of synthesized compounds (in 200 μL medium to yield a final concentration of 0.1% (v/v) dimethyl sulfoxide) into individual wells of the plates. Four wells were designated to a single compound. The plates were allowed to incubate at 37°C for 96 h. Afterwards, the medium was aspirated and 3 -[4,5-dimethylthiazol-2-yl]-2,5-diphenyltetrazolium bromide (MTT) (0.4 mg/mL) in medium was added to each well and subsequent ly incubated for 3 h. The medium was aspirated and 150 μL dimethyl sulfoxide (DMSO) was added to each well. The plates were vortexed followed by the measurement of absorbance at 540 nm on a microplate reader. The results were presented as inhibition (%) of proliferation in contrast to controls comprising 0.1% 4.2.1.2. Assay for antiproliferative effect
To explore the antiproliferative potential of compounds propidium iodide fluorescence assay was performed using different cell lines such as Panc -1 (pancreas cancer cell line), MCF-7 (breast cancer cell line), HT-29 (colon cancer cell line) and A-549 (epithelial cancer cell line), respectively. To calculate the total nuclear DNA, a fluorescent dye (propidium iodide, PI) is used which can attach to the DNA, thus offering a quick and precise technique. PI cannot pass through the cell membrane and its signal intensity can be considered as directly proportional to quantity of cellular DNA. Cells whose cell membranes are damaged or have changed permeability are counted as dead ones. The assay was performed by seeding the cells of different cell lines at a density of 3000-7500 cells/well (in200μl medium) in culture plates followed by incubation for 24h at 37 °C in humidified 5%CO2/95% air atmospheric conditions. The medium was removed; the compounds were added to the plates at 10 μM concentrations (in 0.1% DMSO) in triplicates, followed by incubation for 48h. DMSO (0.1%) was used as control. After incubation, medium was removed followed by the addition of PI (25 μl, 50μg/mL in water/medium) to each well of the plates. At - 80 °C, the plates were allowed to freeze for 24 h, followed by thawing at 25 °C. A fluorometer (Polar-Star BMG Tech) was used to record the readings at excitation and emission wavelengths of 530 and 620 nm for each well. The percentage cytotoxicity of compounds was calculated using […]
Where ATC= Absorbance of treated cells and AC= Absorbance of control. Erlotinib was used as positive control in the assay. […]

EGFR = target: T1, EGFR (Homo sapiens, UniProt P00533); experiment: EGFR inhibitory assay; assay type: biochemical; conditions: read-out: EGFR Inhibition IC50 ± SEM
T1 construct: 645–1186); His6 (N); made in house; host or cells: Sf-9 insect cells (baculovirus; pBlueBacHis2B / pFASTBacHTc
Description: 4.2.2. EGFR inhibitory assay
Baculoviral expression vectors including pBlueBacHis2B and pFASTBacHTc were used […]
(1 picture or pasted object on this page, not shown here)
5ʹ upstream to the EGFR sequence comprised a sequence that encoded (His)6. Sf-9 cells were infected for 72h for protein expression. The pellets of Sf-9 cells were solubilized in a buffer containing sodium vanadate (100 μM), aprotinin (10 μg/mL), triton (1%), HEPES […]
centrifugation for 20 min.
Histidine-linked proteins were first eluted with 250 and then […]
enhancement solution was added to each well and the signal was recorded at excitation and […]
The autophosphorylation percentage inhibition by compounds was calculated using the following equation: […]

BRAF^V600E = BRAF^V600E inhibitory assay
Chain of BRAF^V600E (P28028 whole entry V585E): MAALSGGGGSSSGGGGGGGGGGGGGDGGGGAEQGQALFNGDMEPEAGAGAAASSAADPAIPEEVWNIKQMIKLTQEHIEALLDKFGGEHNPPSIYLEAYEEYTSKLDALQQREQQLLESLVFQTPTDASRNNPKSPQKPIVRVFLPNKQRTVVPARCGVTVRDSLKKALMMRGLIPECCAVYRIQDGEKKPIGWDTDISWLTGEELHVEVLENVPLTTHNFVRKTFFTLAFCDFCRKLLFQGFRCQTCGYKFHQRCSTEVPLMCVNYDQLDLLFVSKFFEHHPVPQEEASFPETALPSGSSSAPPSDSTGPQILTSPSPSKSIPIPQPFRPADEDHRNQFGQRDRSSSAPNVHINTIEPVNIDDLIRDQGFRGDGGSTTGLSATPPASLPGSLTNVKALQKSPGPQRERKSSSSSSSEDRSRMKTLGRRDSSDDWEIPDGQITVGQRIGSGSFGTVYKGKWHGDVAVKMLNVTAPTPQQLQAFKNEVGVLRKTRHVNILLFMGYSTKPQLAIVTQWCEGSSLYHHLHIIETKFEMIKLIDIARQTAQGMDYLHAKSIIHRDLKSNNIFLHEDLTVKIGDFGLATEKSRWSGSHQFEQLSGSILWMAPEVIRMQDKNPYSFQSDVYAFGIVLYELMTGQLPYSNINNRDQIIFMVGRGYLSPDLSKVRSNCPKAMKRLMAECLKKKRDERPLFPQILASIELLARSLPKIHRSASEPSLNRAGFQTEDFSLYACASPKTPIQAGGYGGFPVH
Description: V600E mutant BRAF kinase assay was performed to investigate the activity of tested compounds against BRAF. Mouse full-length GST-tagged BRAFV600E (7.5 ng, Invitrogen, PV3849) was pre-incubated with drug (1 µL) and assay dilution buffer (4 µL) for 60 min at 25 °C. In assay dilution buffer, a solution (5 µL) containing MgCl2 (30 mM), ATP (200 µM), recombinant human full length (200 ng) and N-terminal His-tagged MEK1 (Invitrogen) was added to start the assay, subsequent to incubation for 25 min at 25 °C. The assay was stopped using 5X protein denaturing buffer (LDS) solution (5 µL). To further denature the protein, heat (70° C) was applied for 5 min.
10 µL of each reaction was loaded into the precast plates and electrophoresis was allowed to proceed. After completion of electrophoresis, the front part of the precast gel plate (holding hot ATP) was cut and afterwards cast-off. The dried gel was developed using a phosphor screen.
served as positive control.

T1 sequence (P00533 669-1210): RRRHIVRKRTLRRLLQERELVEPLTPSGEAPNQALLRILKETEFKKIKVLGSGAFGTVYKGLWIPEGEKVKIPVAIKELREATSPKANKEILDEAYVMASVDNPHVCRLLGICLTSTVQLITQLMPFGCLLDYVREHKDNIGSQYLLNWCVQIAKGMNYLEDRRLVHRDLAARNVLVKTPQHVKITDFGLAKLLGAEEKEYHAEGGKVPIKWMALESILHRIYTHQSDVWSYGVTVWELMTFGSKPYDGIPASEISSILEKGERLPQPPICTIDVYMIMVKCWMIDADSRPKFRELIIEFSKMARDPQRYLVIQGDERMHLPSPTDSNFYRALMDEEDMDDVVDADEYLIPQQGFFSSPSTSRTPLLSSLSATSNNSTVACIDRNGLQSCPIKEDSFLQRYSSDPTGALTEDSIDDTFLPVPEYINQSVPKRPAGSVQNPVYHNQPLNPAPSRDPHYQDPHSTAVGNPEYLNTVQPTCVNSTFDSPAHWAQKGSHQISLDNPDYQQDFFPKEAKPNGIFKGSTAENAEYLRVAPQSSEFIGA

SMILES	viability at 96 h, 50 µM [1] [%]	IC50 [2] [µM]	IC50 (EGFR) [nM]	IC50 (BRAF^V600E) [nM]
COc1ccc(C2CC(c3ccc(NC(=O)COc4ccc(C5=NNC(c6ccc(OC)c(OC)c6)C5)cc4)cc3)=NN2)cc1 (centres unmarked) [Compound 17, 2-(4-(5-(3,4-Dimethoxyphenyl)-4,5-dihydro-1H-pyrazol-3-yl)phenoxy)-N-(4-(5-(4-methoxyphenyl)-4,5-dihydro-1H-pyrazol-3-yl)phenyl)acetamide]	91	1 ± 0.1	87 ± 6	107 ± 9
COc1ccc(C2CC(c3ccc(OCC(=O)Nc4ccc(C5=NNC(c6ccc(OC)c(OC)c6)C5)cc4)cc3)=NN2)cc1 (centres unmarked) [Compound 12, 2-(4-(5-(4-Methoxyphenyl)-4,5-dihydro-1H-pyrazol-3-yl)phenoxy)-N-(4-(5-(3,4-dimethoxyphenyl)-4,5-dihydro-1H-pyrazol-3-yl)phenyl)acetamide]	90	0.9 ± 0.1	81 ± 5	93 ± 6
